These are literature values, as cited in PubChem BioAssay AID1259409 (Chemical Carcinogenesis Research Information System (CCRIS), 2018).

The test system of this series is rodent chemically induced tumor inhibition, incidence and multiplicity. The series can be described thus: CCRIS tumor inhibitor studies. To be noted: Dose [Inhibitor]: 0, Species: MOUSE.

As to `C#Cc1ccc2ccc3cccc4ccc1c2c34`, the “tumour outcome (control, treated, inhibition, significance)” value (Carcinogen: 7,12-DIMETHYLBENZ[A]ANTHRACENE, 57-97-6, 0.044 NMOL IN 0.2 ML ACETONE APPLIED TO BACK ONCE 5 MIN PRIOR TO CARCINOGEN DOSE (STUDY DURATION: 26 WK), Route [Inhibitor]: DERMAL, Strain/Sex: SENCAR/FEMALE, Target Tissue: Type of Lesion: SKIN: PAPILLOMA, Dose [Carcinogen]: 10 NMOL IN 0.2 ML ACETONE APPLIED TO BACK ONCE.) is on record as 100%, 93%, 7%, not calculated; the “tumour outcome (control, treated, inhibition, significance)” value (Carcinogen: 7,12-DIMETHYLBENZ[A]ANTHRACENE, 57-97-6, 0.44 NMOL IN 0.2 ML ACETONE APPLIED TO BACK ONCE 5 MIN PRIOR TO CARCINOGEN DOSE (STUDY DURATION: 20 WK), Route [Inhibitor]: DERMAL, Strain/Sex: SENCAR/FEMALE, Target Tissue: Type of Lesion: SKIN: PAPILLOMA, Dose [Carcinogen]: 10 NMOL IN 0.2 ML ACETONE APPLIED TO BACK ONCE.) was 100%, 50%, 50%, not calculated; the “tumour outcome (control, treated, inhibition, significance)” value (Carcinogen: 7,12-DIMETHYLBENZ[A]ANTHRACENE, 57-97-6, 4.4 NMOL IN 0.2 ML ACETONE APPLIED TO BACK ONCE 5 MIN PRIOR TO CARCINOGEN DOSE (STUDY DURATION: 26 WK), Route [Inhibitor]: DERMAL, Strain/Sex: SENCAR/FEMALE, Target Tissue: Type of Lesion: SKIN: PAPILLOMA, Dose [Carcinogen]: 10 NMOL IN 0.2 ML ACETONE APPLIED TO BACK ONCE.) is given as 100%, 83%, 17%, not calculated; the “tumour outcome (control, treated, inhibition, significance)” value (Carcinogen: 7,12-DIMETHYLBENZ[A]ANTHRACENE, 57-97-6, 22 NMOL IN 0.2 ML ACETONE APPLIED TO BACK ONCE 5 MIN PRIOR TO CARCINOGEN DOSE (STUDY DURATION: 26 WK), Route [Inhibitor]: DERMAL, Strain/Sex: SENCAR/FEMALE, Target Tissue: Type of Lesion: SKIN: PAPILLOMA, Dose [Carcinogen]: 10 NMOL IN 0.2 ML ACETONE APPLIED TO BACK ONCE.) is reported as 100%, 60%, 40%, not calculated; the “tumour outcome (control, treated, inhibition, significance)” value (Carcinogen: 7,12-DIMETHYLBENZ[A]ANTHRACENE, 57-97-6, 44 NMOL IN 0.2 ML ACETONE APPLIED TO BACK ONCE 5 MIN PRIOR TO CARCINOGEN DOSE (STUDY DURATION: 26 WK), Route [Inhibitor]: DERMAL, Strain/Sex: SENCAR/FEMALE, Target Tissue: Type of Lesion: SKIN: PAPILLOMA, Dose [Carcinogen]: 10 NMOL IN 0.2 ML ACETONE APPLIED TO BACK ONCE.) is recorded as 100%, 35%, 65%, not calculated; the “tumour outcome (control, treated, inhibition, significance)” value (Carcinogen: 7,12-DIMETHYLBENZ[A]ANTHRACENE, 57-97-6, 440 NMOL IN 0.2 ML ACETONE APPLIED TO BACK ONCE 5 MIN PRIOR TO CARCINOGEN DOSE (STUDY DURATION: 20 WK), Route [Inhibitor]: DERMAL, Strain/Sex: SENCAR/FEMALE, Target Tissue: Type of Lesion: SKIN: PAPILLOMA, Dose [Carcinogen]: 10 NMOL IN 0.2 ML ACETONE APPLIED TO BACK ONCE.) is 100%, 24%, 76%, not calculated. In addition, the “tumour outcome (control, treated, inhibition, significance)” value (Carcinogen: 7,12-DIMETHYLBENZ[A]ANTHRACENE, 57-97-6, 4400 NMOL IN 0.2 ML ACETONE APPLIED TO BACK ONCE., Route [Inhibitor]: DERMAL, Strain/Sex: SENCAR/FEMALE, Target Tissue: Type of Lesion: SKIN: PAPILLOMA, Dose [Carcinogen]: 10 NMOL IN 0.2 ML ACETONE APPLIED TO BACK ONCE.) is 100%, 0%, 100%, not calculated; the “tumour outcome (control, treated, inhibition, significance)” value (Carcinogen: BENZO[A]PYRENE, 50-32-8, 22 NMOL IN 0.2 ML ACETONE APPLIED TO BACK ONCE 5 MIN PRIOR TO CARCINOGEN DOSE (STUDY DURATION: 26 WK), Route [Inhibitor]: DERMAL, Strain/Sex: SENCAR/FEMALE, Target Tissue: Type of Lesion: SKIN: PAPILLOMA, Dose [Carcinogen]: 200 NMOL IN 0.2 ML ACETONE APPLIED TO BACK ONCE.) was 100%, 91%, 9%, not calculated; the “tumour outcome (control, treated, inhibition, significance)” value (Carcinogen: BENZO[A]PYRENE, 50-32-8, 44 NMOL IN 0.2 ML ACETONE APPLIED TO BACK ONCE 5 MIN PRIOR TO CARCINOGEN DOSE (STUDY DURATION: 26 WK), Route [Inhibitor]: DERMAL, Strain/Sex: SENCAR/FEMALE, Target Tissue: Type of Lesion: SKIN: PAPILLOMA, Dose [Carcinogen]: 200 NMOL IN 0.2 ML ACETONE APPLIED TO BACK ONCE.) was 100%, 96%, 4%, not calculated; the “tumour outcome (control, treated, inhibition, significance)” value (Carcinogen: BENZO[A]PYRENE, 50-32-8, 440 NMOL IN 0.2 ML ACETONE APPLIED TO BACK ONCE 5 MIN PRIOR TO CARCINOGEN DOSE (STUDY DURATION: 26 WK), Route [Inhibitor]: DERMAL, Strain/Sex: SENCAR/FEMALE, Target Tissue: Type of Lesion: SKIN: PAPILLOMA, Dose [Carcinogen]: 200 NMOL IN 0.2 ML ACETONE APPLIED TO BACK ONCE.) is recorded as 100%, 74%, 26%, not calculated; the “tumour outcome (control, treated, inhibition, significance)” value (Carcinogen: BENZO[A]PYRENE, 50-32-8, 4400 NMOL IN 0.2 ML ACETONE APPLIED TO BACK ONCE 5 MIN PRIOR TO CARCINOGEN DOSE (STUDY DURATION: 20 WK), Route [Inhibitor]: DERMAL, Strain/Sex: SENCAR/FEMALE, Target Tissue: Type of Lesion: SKIN: PAPILLOMA, Dose [Carcinogen]: 200 NMOL IN 0.2 ML ACETONE APPLIED TO BACK ONCE.) is recorded as 75%, 59%, 21%, not calculated; the “tumour outcome (control, treated, inhibition, significance)” value (Carcinogen: BENZO[A]PYRENE, 50-32-8, 4400 NMOL IN 0.2 ML ACETONE APPLIED TO BACK ONCE 5 MIN PRIOR TO CARCINOGEN DOSE (STUDY DURATION: 26 WK), Route [Inhibitor]: DERMAL, Strain/Sex: SENCAR/FEMALE, Target Tissue: Type of Lesion: SKIN: PAPILLOMA, Dose [Carcinogen]: 200 NMOL IN 0.2 ML ACETONE APPLIED TO BACK ONCE.) is 100%, 71%, 29%, not calculated. The “tumour outcome (control, treated, inhibition, significance)” value reads like this: (Carcinogen: BENZO[A]PYRENE, 50-32-8, 22000 NMOL IN 0.2 ML ACETONE APPLIED TO BACK ONCE 5 MIN PRIOR TO CARCINOGEN DOSE (STUDY DURATION: 20 WK), Route [Inhibitor]: DERMAL, Strain/Sex: SENCAR/FEMALE, Target Tissue: Type of Lesion: SKIN: PAPILLOMA, Dose [Carcinogen]: 200 NMOL IN 0.2 ML ACETONE APPLIED TO BACK ONCE.) 75%, 35%, 53%, not calculated; (Carcinogen: BENZO[A]PYRENE, 50-32-8, 44000 NMOL IN 0.2 ML ACETONE APPLIED TO BACK ONCE 5 MIN PRIOR TO CARCINOGEN DOSE (STUDY DURATION: 20 WK), Route [Inhibitor]: DERMAL, Strain/Sex: SENCAR/FEMALE, Target Tissue: Type of Lesion: SKIN: PAPILLOMA, Dose [Carcinogen]: 200 NMOL IN 0.2 ML ACETONE APPLIED TO BACK ONCE.) 75%, 22%, 71%, not calculated; (Carcinogen: N-METHYL-N'-NITRO-N-NITROSOGUANIDINE, 70-25-7, 4400 NMOL IN 0.2 ML ACETONE APPLIED TO BACK ONCE 5 MIN PRIOR TO CARCINOGEN DOSE (STUDY DURATION: 20 WK), Route [Inhibitor]: DERMAL, Strain/Sex: SENCAR/FEMALE, Target Tissue: Type of Lesion: SKIN: PAPILLOMA, Dose [Carcinogen]: 2500 NMOL IN 0.2 ML ACETONE APPLIED TO BACK ONCE.) 78%, 78%, 0%, not significant. Where the note is “Carcinogen: 7,12-DIMETHYLBENZ[A]ANTHRACENE, 57-97-6, 0.44 NMOL IN 0.2 ML ACETONE APPLIED TO BACK ONCE 5 MIN PRIOR TO CARCINOGEN DOSE (STUDY DURATION: 26 WK), Route [Inhibitor]: DERMAL, Strain/Sex: SENCAR/FEMALE, Target Tissue: Type of Lesion: SKIN: PAPILLOMA, Dose [Carcinogen]: 10 NMOL IN 0.2 ML ACETONE APPLIED TO BACK ONCE.”, the outcome is reported as 100%, 100%, 0, not calculated.
For the compound `CC(O)CCCc1ccccc1` (configuration not stated), the “tumour outcome (control, treated, inhibition, significance)” value (Carcinogen: 4-(METHYLNITROSAMINO)-1-(3-PYRIDYL)-1-BUTANONE, 64091-91-4, 25 UMOL IN 0.1 ML CORN OIL ONCE 2 HR PRIOR TO CARCINOGEN DOSE (STUDY DURATION: 16 WK), Route [Inhibitor]: GAVAGE, Strain/Sex: STRAIN-A/FEMALE, Target Tissue: Type of Lesion: LUNG: TUMOR, Dose [Carcinogen]: 10 UMOL IN 0.1 ML SALINE ONCE, Promoter: NONE USED) is given as 100%, 100%, 0%, not significant.
